Source: publication PMC12069340 (Frontiers in Cellular and Infection Microbiology, 2025)
Structures can show the parent of a compound that is named as a salt. Where two headings read alike, the source gives them in different places.

Legend:
[1] = tested on: U937 cells; conditions: 20 µM
[2] = tested on: A/PuertoRico/8/1934 (H1N1) virus; assay: microbe, parasite or virus in culture; type: cell-based, influenza A virus
[3] = tested on: A/PuertoRico/8/1934 (H1N1) virus; assay: microbe, parasite or virus in culture; type: cell-based, influenza A virus; remark: listed apart in the source
[4] = tested on: U937 cells
[5] = in vitro; conditions: human, Relative Viability (%)
[6] = in vitro; conditions: human
[7] = tested on: single-stranded RNA (ssRNA) viruses; conditions: cited from earlier work
[8] = Validation screen: cytotoxicity without viral infection; conditions: human
[9] = in vitro
[10] = tested on: A/Human/Hubei/3/2005 (H3N2); assay: microbe, parasite or virus in culture; type: cell-based; conditions: Influenza A virus, H3N2, A549, 48 h, read-out: H3N2 IC50
[11] = in vitro; conditions: dog
[12] = tested on: B/Human/Hubei/1/2007 (IBV); assay: microbe, parasite or virus in culture; type: cell-based; conditions: Influenza B virus, MDCK, 48 h, read-out: IBV IC50
[13] = tested on: striatal neurons; set-up: method as in Iwatsubo et al., 2007; conditions: young and neonatal neurons; ref Iwatsubo et al., 2007; cited from earlier work
[14] = in vitro; conditions: human; remark: listed apart in the source
[15] = in vitro; conditions: human; remark: listed apart in the source
[16] = tested on: Bovine Liver Catalase (BLC); set-up: method as in Shahraki et al., 2020; conditions: ref Shahraki et al., 2020; cited from earlier work
[17] = tested on: primary tumor; set-up: method as in Sakakitani et al., 2020; conditions: xenograft model; ref Sakakitani et al., 2020; cited from earlier work
[18] = tested on: oral cancer cells; set-up: method as in Sakakitani et al., 2020; conditions: ref Sakakitani et al., 2020; cited from earlier work
[19] = Influenza A virus, H1N1, U-937, 48 h
[20] = Influenza A virus, H1N1, U-937, 48 h; read-out: NA Inhibition (%)
[21] = Influenza A virus, H1N1, U-937, 48 h, read-out: NA Inhibition (%)

Promethazine HCl
Relative Viability (%) [1]: 105.7%
IC50 ([2]; read-out: IC50): 9.3 µM
NA Inhibition (%) ([3]; 20 µM): 64.8%
CC50 [4]: > 80 µM

O=C(C[S+]([O-])Cc1ccco1)NC/C=C\COc1cc(CN2CCCCC2)ccn1 (stereo not shown) [Lafutidine]
viability at 20 µM [5]: 109%
IC50 [2, 19]: 14.8 µM
CC50 at 48 h [6]: > 80 µM
inhibition at 20 µM [3, 20]: 52%

CN1CCN(CCCN2c3ccccc3Sc3ccc(Cl)cc32)CC1 [Prochlorperazine dimaleate, Prochlorperazine dimaleate salt]
viability at 20 µM [5]: 93.5%
antiviral properties, virus entry [7]: exhibits antiviral properties by disrupting clathrin redistribution
inhibition at 20 µM [3, 21]: 63.9%
CC50 at 48 h ([8]; uninfected U937 cells): 38.4 µM

COc1cc([C@@H]2c3cc4c(cc3[C@@H](O[C@@H]3O[C@@H]5CO[C@@H](C)O[C@H]5[C@H](O)[C@H]3O)[C@H]3COC(=O)[C@H]23)OCO4)cc(OC)c1O [etoposide]
CC50 [9]: 260 µM

Cc1ccc(OCC(O)C(C)NC(C)C)c2c1CCC2 (stereo not shown) [ICI-118551]
viability at 20 µM [5]: 106%
IC50 [2, 19]: 5.8 µM
CC50 at 48 h [6]: > 80 µM
inhibition at 20 µM [3, 21]: 60.7%

Meclizine 2HCl
Relative Viability (%) [1]: 109.3%
IC50 ([2]; read-out: IC50): 5.3 µM
NA Inhibition (%) ([3]; 20 µM): 74.9%
CC50 [4]: 79.5 µM

C=C(CC)C(=O)c1ccc(OCC(=O)O)c(Cl)c1Cl [ethacrynic acid, Ethacrynic acid]
CC50 [9]: 240 µM

Propranolol HCl
NA Inhibition (%) ([3]; 20 µM): 65.3%
CC50 [4]: > 80 µM

CCCN(CCc1cccs1)[C@H]1CCc2c(O)cccc2C1 [Rotigotine]
viability at 20 µM [5]: 147%
IC50 [2, 19]: 1.26 µM
inhibition at 20 µM [3, 20]: 89.1%
CC50 ([9]; human): 372 µM
IC50 [10]: 21.9 µM
CC50 at 48 h [11]: 93 µM
IC50 [12]: 7.3 µM

CC(C)NCC(O)c1ccc(O)c(O)c1 (stereo not shown) [Isoprenaline HCl]
apoptosis [13]: did not promote apoptosis in either group
inhibition at 20 µM [3, 20]: -12.4%

CN1CCCC(n2nc(Cc3ccc(Cl)cc3)c3ccccc3c2=O)CC1 (stereo not shown) [Azelastine HCl]
viability at 20 µM [5]: 99.4%
IC50 [2, 19]: 8.4 µM
inhibition at 20 µM [3, 20]: 55.3%
CC50 at 48 h ([8]; uninfected U937 cells): 55.7 µM

CC(COc1ccccc1)NC(C)C(O)c1ccc(O)cc1 (stereo not shown) [Isoxsuprine, Isoxsuprine hydrochloride]
viability at 20 µM [5]: 105%
CC50 at 48 h [14]: > 900 µM
IC50 [2, 19]: 1.5 µM
CC50 [15]: > 900 µM
inhibition at 20 µM [3, 21]: 86.5%
catalase activity [16]: reduce catalase activity
CC50 ([9]; human, A549 cells): 530 µM
primary tumor growth [17]: effectively suppressed primary tumor growth
mesenchymal cell markers and motility [18]: downregulates mesenchymal cell markers and reduces motility
IC50 [10]: 34.3 µM
CC50 at 48 h [11]: > 400 µM
IC50 [12]: 3.4 µM
CC50 at 48 h [8]: > 80 µM

O=C(c1ccc(OCCCc2cnc[nH]2)cc1)C1CC1 [Ciproxifan]
viability at 20 µM [5]: 131%
CC50 at 48 h [14]: 556 µM
IC50 [2, 19]: 1.4 µM
CC50 [15]: 425 µM
inhibition at 20 µM [3, 20]: 75.2%
CC50 ([9]; human, A549 cells): 556 µM
IC50 [10]: 14.9 µM
CC50 at 48 h [11]: > 400 µM
IC50 [12]: 1.8 µM
CC50 at 48 h [8]: > 80 µM

Cc1cccc(C(C)c2cnc[nH]2)c1C (stereo not shown) [Medetomidine HCl]
viability at 20 µM [5]: 103%
IC50 [2, 19]: 12.5 µM
inhibition at 20 µM [3, 21]: 59.7%
CC50 at 48 h [8]: > 80 µM

OCc1cc(C(O)CNCCCCCCOCCCCc2ccccc2)ccc1O (stereo not shown) [Salmeterol Xinafoate]
viability at 20 µM [5]: 90.4%
IC50 [2, 19]: 4.4 µM
inhibition at 20 µM [3, 21]: 69.9%
CC50 at 48 h ([8]; uninfected U937 cells): 40.2 µM

NCCc1ccc(O)c(O)c1 [Dopamine HCl]
apoptosis [13]: can induce apoptosis in young striatal neurons through D1-like receptors, but not in neonatal neurons
inhibition at 20 µM [3, 21]: -7.6%
